What all share (format): cell-based
One assay has as its system GP2D (KRAS G12D). As to the kind of experiment: Cell proliferation assay (CellTiter-Glo, 72 hours), GP2D. Particulars: GP2d, 72 h, 384-well, CellTiter-Glo 2.0. On the procedure: (§1) Two thousand KRAS mutant cells per well were seeded in 384-well white plate and then treated with indicated compounds for 72 hours at 37° C. and 5% CO2. Cell proliferation was measured using CellTiter-Glo 2.0 luciferase-based ATP detection assay (Promega, Madison, WI) following the manufacturer's protocol. IC50 values were determined using Prism software (GraphPad Software, San Diego, CA).
For orientation: In ATP-based viability assays light output follows the ATP content of the culture.

The next assay relates to SW620 (KRAS G12V). Description: Cell proliferation assay (CellTiter-Glo, 72 hours), SW620. Particulars: Homo sapiens, SW-620, 72 h, 384-well, CellTiter-Glo 2.0. On the procedure: as §1
In another assay the test system is AGS (G12D). As to the kind of experiment: Cell proliferation assay (CellTiter-Glo, 72 hours), AGS. Particulars: 72 h, 384-well, CellTiter-Glo 2.0. On the procedure: as §1

The IC50 is the midpoint of a concentration-inhibition curve. Read a high IC50 as a need for much substance. For the compound `C#Cc1c(F)ccc2cc(O)cc(-c3nc4c5c(nc(OC[C@@]67CCCN6C[C@H](F)C7)nc5c3F)N(Cc3ccccc3)[C@@H](CO)CO4)c12` [Example 80, 4-[(9S)-10-benzyl-4-fluoro-2-{[(2R,7aS)-2-fluorotetrahydro-1H-pyrrolizin-7a(5H)-yl]methoxy}-9-(hydroxymethyl)-9,10-dihydro-8H-7-oxa-1,3,6,10-tetraazacyclohepta[1,2,3-de]naphthalen-5-yl]-5-ethynyl-6-fluoronaphthalen-2-ol], the IC50 in the assay on GP2D (KRAS G12D), with SW620 (KRAS G12V) and in the assay on AGS (G12D) was above 3000 nM throughout.

On to `C#Cc1c(F)ccc2cc(O)cc(-c3nc4c5c(nc(OC[C@@]67CCCN6C[C@H](F)C7)nc5c3F)N(C(C)C)[C@@H](C)CO4)c12` [Example 56, 5-ethynyl-6-fluoro-4-[(9S)-4-fluoro-2-{1[(2R,7aS)-2-fluorotetrahydro-1H-pyrrolizin-7a(5H)-yl]methoxy}-9-methyl-10-(propan-2-yl)-9,10-dihydro-8H-7-oxa-1,3,6,10-tetraazacyclohepta[1,2,3-de]naphthalen-5-yl]naphthalen-2-ol], for which the IC50 with GP2D (KRAS G12D) stood at 2.45 nM; in the assay with SW620 (KRAS G12V) it was 3.51 nM; with AGS (G12D), 5.14 nM.

Turning to `C#Cc1c(F)ccc2cc(O)cc(-c3nc4c5c(nc(OC[C@@]67CCCN6C[C@H](F)C7)nc5c3F)N(C)[C@@H](C(C)C)CO4)c12` [Example 51, 5-ethynyl-6-fluoro-4-[(9S)-4-fluoro-2-{[(2R,7aS)-2-fluorotetrahydro-1H-pyrrolizin-7a(5H)-yl]methoxy}-10-methyl-9-(propan-2-yl)-9,10-dihydro-8H-7-oxa-1,3,6,10-tetraazacyclohepta[1,2,3-de]naphthalen-5-yl]naphthalen-2-ol], the figures for the IC50 with GP2D (KRAS G12D), in the assay on SW620 (KRAS G12V) and in the assay on AGS (G12D) were 216 nM, 2270 nM and above 3000 nM, respectively.

Turning to `C#Cc1c(F)ccc2cc(O)cc(-c3nc4c5c(nc(OC[C@@]67CCCN6C[C@H](F)C7)nc5c3F)N(C)[C@@H](C3CC3)CO4)c12` [Example 32, 4-[(9S)-9-cyclopropyl-4-fluoro-2-{[(2R,7aS)-2-fluorotetrahydro-1H-pyrrolizin-7a(5H)-yl]methoxy}-10-methyl-9,10-dihydro-8H-7-oxa-1,3,6,10-tetraazacyclohepta[1,2,3-de]naphthalen-5-yl]-5-ethynyl-6-fluoronaphthalen-2-ol], the IC50 with GP2D (KRAS G12D) amounted to 293 nM; in the assay on SW620 (KRAS G12V) it was 693 nM; with AGS (G12D) it was 623 nM.

Turning to `CCc1c(F)ccc2cc(O)cc(-c3nc4c5c(nc(OC[C@@]67CCCN6C[C@H](F)C7)nc5c3F)NCCC4)c12` [Example 117, 5-ethyl-6-fluoro-4-(4-fluoro-2-{[(2R,7aS)-2-fluorotetrahydro-1H-pyrrolizin-7a(5H)-yl]methoxy}-7,8,9,10-tetrahydro-1,3,6,10-tetraazacyclohepta[1,2,3-de]naphthalen-5-yl)naphthalen-2-ol], the half-maximal inhibitory concentration (IC50) with GP2D (KRAS G12D), with SW620 (KRAS G12V) and in the assay with AGS (G12D) was above 3000 nM in each case.

Take `C#Cc1c(F)ccc2cc(O)cc(-c3nc4c5c(nc(OC[C@@]67CCCN6C[C@H](F)C7)nc5c3F)N3C[C@H](O)CC[C@@H]3CO4)c12` [Example 87, (8aR,11R)-5-(8-ethynyl-7-fluoro-3-hydroxynaphthalen-1-yl)-4-fluoro-2-{[(2R,7aS)-2-fluorotetrahydro-1H-pyrrolizin-7a(5H)-yl]methoxy}-8,8a,9,10,11,12-hexahydro-7-oxa-1,3,6,12a-tetraazabenzo[4,5]cyclohepta[1,2,3-de]naphthalen-11-ol]: the IC50 in the assay on GP2D (KRAS G12D) stood at 64.5 nM; with SW620 (KRAS G12V), 686 nM; with AGS (G12D), 132 nM.

As to `CCc1c(F)ccc2cc(O)cc(-c3nc4c5c(nc(OC[C@@]67CCCN6C[C@H](F)C7)nc5c3F)N[C@@H](C3CC3)CO4)c12` [Example 33, 4-[(9S)-9-cyclopropyl-4-fluoro-2-{[(2R,7aS)-2-fluorotetrahydro-1H-pyrrolizin-7a(5H)-yl]methoxy}-9,10-dihydro-8H-7-oxa-1,3,6,10-tetraazacyclohepta[1,2,3-de]naphthalen-5-yl]-5-ethyl-6-fluoronaphthalen-2-ol], the IC50 stood at 962 nM in the assay with GP2D (KRAS G12D), 1530 nM in the assay on SW620 (KRAS G12V) and 2840 nM with AGS (G12D).

As to `C#Cc1c(F)ccc2cc(O)cc(-c3nc4c5c(nc(OC[C@@]67CCCN6C[C@@H](O)C7)nc5c3F)N3CCCC[C@H]3CO4)c12` [Example 101, (2S,7aS)-7a-({[(8aS)-5-(8-ethynyl-7-fluoro-3-hydroxynaphthalen-1-yl)-4-fluoro-8,8a,9,10,11,12-hexahydro-7-oxa-1,3,6,12a-tetraazabenzo[4,5]cyclohepta[1,2,3-de]naphthalen-2-yl]oxy}methyl)hexahydro-1H-pyrrolizin-2-ol], the figures for the IC50 with GP2D (KRAS G12D), in the assay with SW620 (KRAS G12V) and in the assay on AGS (G12D) were 880 nM, above 3000 nM and above 3000 nM, respectively.

Take `CCc1c(F)ccc2cc(O)cc(-c3nc4c5c(nc(OC[C@@]67CCCN6C[C@H](F)C7)nc5c3F)N(CC(F)F)[C@@H](C)CO4)c12` [Example 131, 4-[(9S)-10-(2,2-difluoroethyl)-4-fluoro-2-{[(2R,7aS)-2-fluorotetrahydro-1H-pyrrolizin-7a(5H)-yl]methoxy}-9-methyl-9,10-dihydro-8H-7-oxa-1,3,6,10-tetraazacyclohepta[1,2,3-de]naphthalen-5-yl]-5-ethyl-6-fluoronaphthalen-2-ol]: the IC50 in the assay with GP2D (KRAS G12D) amounted to 23.9 nM; in the assay on SW620 (KRAS G12V), 42.7 nM; in the assay on AGS (G12D), 65.3 nM.

With `C#Cc1c(F)ccc2cc(O)cc(-c3nc4c5c(nc(OC[C@@]67CCCN6C[C@H](F)C7)nc5c3F)N(C)C3(CCOC3)CO4)c12` (stereo partly drawn) [Example 129, 5-ethynyl-6-fluoro-4-[6-fluoro-3-[[(2R,8S)-2-fluoro-1,2,3,5,6,7-hexahydropyrrolizin-8-yl]methoxy]-13-methyl-spiro[10-oxa-2,4,8,13-tetrazatricyclo[7.4.1.05,14]tetradeca-1,3,5,7,9 (14)-pentaene-12,3′-tetrahydrofuran]-7-yl]naphthalen-2-ol], the IC50 with GP2D (KRAS G12D), in the assay with SW620 (KRAS G12V) and in the assay with AGS (G12D) was above 3000 nM throughout.

As to `C#Cc1c(F)ccc2cc(O)cc(-c3nc4c5c(nc(OC[C@@]67CCCN6C[C@H](F)C7)nc5c3F)N3C[C@](C)(O)CC[C@H]3CO4)c12` [Example 30, (8aS,11R)-5-(8-ethynyl-7-fluoro-3-hydroxynaphthalen-1-yl)-4-fluoro-2-{[(2R,7aS)-2-fluorotetrahydro-1H-pyrrolizin-7a(5H)-yl]methoxy}-11-methyl-8,8a,9,10,11,12-hexahydro-7-oxa-1,3,6,12a-tetraazabenzo[4,5]cyclohepta[1,2,3-de]naphthalen-11-ol], the IC50 in the assay with GP2D (KRAS G12D) is 50.5 nM; in the assay with SW620 (KRAS G12V) it was 139 nM; in the assay with AGS (G12D), 97.3 nM.

For `C#Cc1c(F)ccc2cc(O)cc(-c3nc4c5c(nc(OC[C@@]67CCCN6C[C@H](F)C7)nc5c3F)NC3(CC3)CO4)c12` [Example 95, 5-ethynyl-6-fluoro-4-(4′-fluoro-2′-{[(2R,7aS)-2-fluorotetrahydro-1H-pyrrolizin-7a(5H)-yl]methoxy}-8′H,10′H-spiro[cyclopropane-1,9′-[7]oxa[1,3,6,10]tetraazacyclohepta[1,2,3-de]naphthalen]-5′-yl)naphthalen-2-ol], the IC50 with GP2D (KRAS G12D) was 993 nM; with SW620 (KRAS G12V), above 3000 nM; with AGS (G12D), above 3000 nM.

As to `CCc1c(F)ccc2cc(O)cc(-c3nc4c5c(nc(OC[C@@]67CCCN6C[C@H](F)C7)nc5c3F)N[C@H](CO)CO4)c12` [Example 100, 5-ethyl-6-fluoro-4-[(9R)-4-fluoro-2-{[(2R,7aS)-2-fluorotetrahydro-1H-pyrrolizin-7a(5H)-yl]methoxy}-9-(hydroxymethyl)-9,10-dihydro-8H-7-oxa-1,3,6,10-tetraazacyclohepta[1,2,3-de]naphthalen-5-yl]naphthalen-2-ol], the IC50 in the assay on GP2D (KRAS G12D), in the assay on SW620 (KRAS G12V) and in the assay with AGS (G12D) was above 3000 nM each time.

As for `C#Cc1c(F)ccc2cc(O)cc(-c3nc4c5c(nc(OC[C@@]67CCCN6C[C@H](F)C7)nc5c3F)N3CCOC[C@H]3CO4)c12` [Example 58, 5-ethynyl-6-fluoro-4-[(8aS)-4-fluoro-2-{[(2R,7aS)-2-fluorotetrahydro-1H-pyrrolizin-7a(5H)-yl]methoxy}-8a,9,11,12-tetrahydro-8H-7,10-dioxa-1,3,6,12a-tetraazabenzo[4,5]cyclohepta[1,2,3-de]naphthalen-5-yl]naphthalen-2-ol], the IC50 in the assay on GP2D (KRAS G12D) came out at 36.7 nM; in the assay on SW620 (KRAS G12V), 43.1 nM; in the assay with AGS (G12D), 59.4 nM.

As for `C#Cc1c(F)ccc2cc(O)cc(-c3nc4c5c(nc(OC[C@@]67CCCN6C[C@H](F)C7)nc5c3F)N[C@@H](C3CC3)CO4)c12` [Example 31, 4-[(9S)-9-cyclopropyl-4-fluoro-2-{[(2R,7aS)-2-fluorotetrahydro-1H-pyrrolizin-7a(5H)-yl]methoxy}-9,10-dihydro-8H-7-oxa-1,3,6,10-tetraazacyclohepta[1,2,3-de]naphthalen-5-yl]-5-ethynyl-6-fluoronaphthalen-2-ol], the results for the IC50 in the assay on GP2D (KRAS G12D), in the assay on SW620 (KRAS G12V) and with AGS (G12D) were 1880 nM, above 3000 nM and above 3000 nM, respectively.

Consider `C#Cc1c(F)ccc2cc(O)cc(-c3nc4c5c(nc(OC[C@@]67CCCN6C[C@H](F)C7)nc5c3F)N(CC(F)F)[C@@H](C)CO4)c12` [Example 128, 4-[(9S)-10-(2,2-difluoroethyl)-4-fluoro-2-{[(2R,7aS)-2-fluorotetrahydro-1H-pyrrolizin-7a(5H)-yl]methoxy}-9-methyl-9,10-dihydro-8H-7-oxa-1,3,6,10-tetraazacyclohepta[1,2,3-de]naphthalen-5-yl]-5-ethynyl-6-fluoronaphthalen-2-ol], for which the IC50 was 5.8 nM in the assay on GP2D (KRAS G12D), 6.31 nM in the assay with SW620 (KRAS G12V) and 14.6 nM in the assay with AGS (G12D).

The values are drawn from patent publication US20260008787A1, “FUSED RING KRAS INHIBITORS FOR TREATING DISEASE” (BLOSSOMHILL THERAPEUTICS, INC., priority 2022, published 2026).
